Measured values as given in patent US20230014181A1, “CULTURE SYSTEM AND METHODS FOR IMPROVED MODELING OF NEUROLOGICAL CONDITIONS” (Genentech, Inc., priority 2021, published 2023).
Like-named read-outs stand apart in the source and are kept apart here.

Columns and labels:
[1] = system: human iPSC neurons and astrocytes treated with 5 μM sAβ42s; test: Focused small molecule screen, double culture (neuron, astrocyte), rescue from sAβ42s toxicity, high content imaging; type: cell-based; conditions: double culture, 5 μM sAβ42s; for percent rescue from sAβ42s toxicity at 6.25 µM / percent rescue from sAβ42s toxicity at 12.5 µM / percent rescue from sAβ42s toxicity at 25 µM: Homo sapiens, iPSC
Protocol: FIGS. 11A-11D show synapse % rescue versus MAP2% rescue (FIGS. 11A-11B) and beta III tubulin % rescue versus MAP2% rescue (FIGS. 11C-11D), in neurons and astrocytes (FIGS. 11A and 11C) or neurons, astrocytes, and microglia (FIGS. 11B and 11D) treated with 5 μM sAβ42s and small molecules from a focused screen of known neuroprotective agents at multiple concentrations (50 μM, 25 μM, 12.5 μM and 6.25 μM (double culture), 50 μM, 12.5 μM, 3.1 μM and 0.78 μM (triple culture). Small molecules that prevented toxicity in dendrites (MAP2), synapses (Synapsin 1/2), cell count (CUX2), or axons ([…]) at or above 30% were considered hits (red dotted line).
Neurons from both NSC lines were evaluated by immunofluorescence staining. Briefly, cells were fixed with 4% PFA and 4% sucrose at room temperature for 20 minutes using Bravo automation. Fixed cells were then washed 2 times with PBS using Biotek 406 microplate washer (Beckman Coulter), followed by permeabilization and blocking by incubation with a solution containing 1×PBS, 0.1% Triton X-100, 2% donkey serum, and 1% BSA at room temperature for 30 minutes. Blocking solution was removed and cells were incubated with primary antibodies in blocking solution overnight at 4° C. After washing 6 times with PBS on Biotek 406 cell plate washer (Beckman Coulter), cells were then incubated with fluorophore-conjugated secondary antibodies for 1 hour at room temperature in the dark to avoid photobleaching. Cells were then washed 6 more times in with PBS before imaging. Fluorescent images were captured using IN Cell 6000 confocal microscope (GE Healthcare Life Sciences). The image analysis was performed with IN Cell 6000 analysis software.
Prior to experimentation, media volume in wells containing neurons was equalized with liquid handling automation (Bravo) in order to ensure precise control of concentrations. All Aβ42 oligomers, anti-Aβ, small molecules, inflammatory cytokines were prepared at 10× concentration and added to Neuronal Culture Media at an appropriate volume. For the repeated dosing experiments, the media were refreshed 50% at each dosing first, before adding Aβ42 oligomers, and/or anti-Aβ antibody at the specified final concentration.
In double (neuron, astrocyte) and triple (neuron, astrocyte, microglia) cultures, each small molecule listed in Table 1 was tested in the AD model paradigm at up to four concentrations. Molecules that characterized ≥30% rescue in any of the four measurements of dendrites area (MAP2), synapses count (synapsin 1/2), or cell count (CUX2), or axon area (Beta III Tubulin; “BT3”)) were classified as hits (FIGS. 11A-11D, Table 2, and Table 3).

[2] = system: human iPSC neurons, astrocytes and microglia treated with 5 μM sAβ42s; test: Focused small molecule screen, triple culture (neuron, astrocyte, microglia), rescue from sAβ42s toxicity; type: cell-based; conditions: for percent rescue from sAβ42s toxicity at 0.78 µM / percent rescue from sAβ42s toxicity at 3.13 µM / percent rescue from sAβ42s toxicity at 12.5 µM: Homo sapiens, iPSC
Summary of the method: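 A hit was any compound giving ≥30% rescue of dendrite area (MAP2), synapse count, CUX2 cell count or axon area when dosed against 5 μM sAβ42s toxicity. Testing used iPSC-derived double (neuron/astrocyte) or triple (plus microglia) cultures, at four concentrations of 50, 25, 12.5 and 6.25 μM for double and 50, 12.5, 3.1 and 0.78 μM for triple cultures.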

Structure (SMILES): O=C1NC(=O)C(c2ccccc2[N+](=O)[O-])=C1Nc1ccc(O)c(Cl)c1 [SB 415286]
- % B3T rescue ([1]; 50 μM compound): 39%
- % Cux2 rescue ([1]; 50 μM compound): −13%
- % MAP2 rescue ([1]; 50 μM compound): 19%
- % Synapse rescue ([1]; 50 μM compound): 12%
- % B3T rescue ([2]; 50.00 μM compound): 78%
- % MAP2 rescue ([2]; 50.00 μM compound): 42%
- % Synapse rescue ([2]; 50.00 μM compound): 40%

Structure (SMILES): CN(C)S(=O)(=O)c1ccc2c(c1)/C(=C/c1cc3c([nH]1)CCCC3)C(=O)N2 [SU6656]
- % B3T rescue ([1]; 6.25 μM compound): 4%
- % Cux2 rescue ([1]; 6.25 μM compound): 101%
- % MAP2 rescue ([1]; 6.25 μM compound): 5%
- % Synapse rescue ([1]; 6.25 μM compound): 13%
- % B3T rescue ([1]; 12.5 μM compound): 3%
- % Cux2 rescue ([1]; 12.5 μM compound): 120%
- % MAP2 rescue ([1]; 12.5 μM compound): 4%
- % Synapse rescue ([1]; 12.5 μM compound): 11%
- % B3T rescue ([1]; 25 μM compound): −37%
- % Cux2 rescue ([1]; 25 μM compound): 126%
- % MAP2 rescue ([1]; 25 μM compound): 3%
- % Synapse rescue ([1]; 25 μM compound): 15%
- % B3T rescue ([1]; 50 μM compound): −188%
- % Cux2 rescue ([1]; 50 μM compound): 106%
- % MAP2 rescue ([1]; 50 μM compound): 3%
- % Synapse rescue ([1]; 50 μM compound): 11%
- % B3T rescue ([2]; 0.78 μM compound): 80%
- % MAP2 rescue ([2]; 0.78 μM compound): 58%
- % Synapse rescue ([2]; 0.78 μM compound): 51%
- % B3T rescue ([2]; 3.13 μM compound): 92%
- % MAP2 rescue ([2]; 3.13 μM compound): 72%
- % Synapse rescue ([2]; 3.13 μM compound): 64%
- % B3T rescue ([2]; 12.50 μM compound): 71%
- % MAP2 rescue ([2]; 12.50 μM compound): 53%
- % Synapse rescue ([2]; 12.50 μM compound): 49%
- % B3T rescue ([2]; 50.00 μM compound): 48%
- % MAP2 rescue ([2]; 50.00 μM compound): 40%
- % Synapse rescue ([2]; 50.00 μM compound): 36%

Structure (SMILES): CCN(CC)CCNC(=O)c1c(C)[nH]c(/C=C2\C(=O)Nc3ccc(F)cc32)c1C [SU 11248]
- % B3T rescue ([1]; 25 μM compound): −19%
- % Cux2 rescue ([1]; 25 μM compound): 59%
- % MAP2 rescue ([1]; 25 μM compound): 16%
- % Synapse rescue ([1]; 25 μM compound): 4%
- % B3T rescue ([1]; 50 μM compound): 4%
- % Cux2 rescue ([1]; 50 μM compound): 115%
- % MAP2 rescue ([1]; 50 μM compound): 7%
- % Synapse rescue ([1]; 50 μM compound): 21%
- % B3T rescue ([2]; 0.78 μM compound): 69%
- % MAP2 rescue ([2]; 0.78 μM compound): 73%
- % Synapse rescue ([2]; 0.78 μM compound): 68%
- % B3T rescue ([2]; 3.13 μM compound): 74%
- % MAP2 rescue ([2]; 3.13 μM compound): 88%
- % Synapse rescue ([2]; 3.13 μM compound): 77%

Structure (SMILES): CN1CCN(CCOc2cc(OC3CCOCC3)c3c(Nc4c(Cl)ccc5c4OCO5)ncnc3c2)CC1 [Saracatinib (AZD0530), Saracatinib]
- percent rescue from sAβ42s toxicity at 6.25 µM ([1]; 6.25 μM compound, read-out: % B3T rescue): 62%
- percent rescue from sAβ42s toxicity at 6.25 µM ([1]; 6.25 μM compound, read-out: % Cux2 rescue): 7%
- percent rescue from sAβ42s toxicity at 6.25 µM ([1]; 6.25 μM compound, read-out: % MAP2 rescue): 61%
- percent rescue from sAβ42s toxicity at 6.25 µM ([1]; 6.25 μM compound, read-out: % Synapse rescue): 32%
- percent rescue from sAβ42s toxicity at 12.5 µM ([1]; 12.5 μM compound, read-out: % B3T rescue): 56%
- percent rescue from sAβ42s toxicity at 12.5 µM ([1]; 12.5 μM compound, read-out: % Cux2 rescue): 13%
- percent rescue from sAβ42s toxicity at 12.5 µM ([1]; 12.5 μM compound, read-out: % MAP2 rescue): 71%
- percent rescue from sAβ42s toxicity at 12.5 µM ([1]; 12.5 μM compound, read-out: % Synapse rescue): 34%
- percent rescue from sAβ42s toxicity at 25 µM ([1]; 25 μM compound, read-out: % B3T rescue): 30%
- percent rescue from sAβ42s toxicity at 25 µM ([1]; 25 μM compound, read-out: % Cux2 rescue): 18%
- percent rescue from sAβ42s toxicity at 25 µM ([1]; 25 μM compound, read-out: % MAP2 rescue): 65%
- percent rescue from sAβ42s toxicity at 25 µM ([1]; 25 μM compound, read-out: % Synapse rescue): 10%
- percent rescue from sAβ42s toxicity at 0.78 µM ([2]; 0.78 μM compound, read-out: % B3T rescue): 99%
- percent rescue from sAβ42s toxicity at 0.78 µM ([2]; 0.78 μM compound, read-out: % MAP2 rescue): 72%
- percent rescue from sAβ42s toxicity at 0.78 µM ([2]; 0.78 μM compound, read-out: % Synapse rescue): 65%
- percent rescue from sAβ42s toxicity at 3.13 µM ([2]; 3.13 μM compound, read-out: % B3T rescue): 99%
- percent rescue from sAβ42s toxicity at 3.13 µM ([2]; 3.13 μM compound, read-out: % MAP2 rescue): 73%
- percent rescue from sAβ42s toxicity at 3.13 µM ([2]; 3.13 μM compound, read-out: % Synapse rescue): 65%
- percent rescue from sAβ42s toxicity at 12.5 µM ([2]; 12.50 μM compound, read-out: % B3T rescue): 35%
- percent rescue from sAβ42s toxicity at 12.5 µM ([2]; 12.50 μM compound, read-out: % MAP2 rescue): -12%
- percent rescue from sAβ42s toxicity at 12.5 µM ([2]; 12.50 μM compound, read-out: % Synapse rescue): -2%
